Where “and” joins values, the source holds several entries; their conditions need not be identical. Equal entries are not always repeated.
Details: for speed of sound / mass density / viscosity / vapor or sublimation pressure: Liquid; for speed of sound: Frequency=3 MHz, Single path-length method; for mass density: Vibrating tube method; for surface tension liquid-gas: Drop volume; for viscosity: Capillary tube (Ostwald / Ubbelohde) method; for vapor or sublimation pressure: Ebulliometric method (Recirculating still)

CCc1ccco1 [2-ethylfuran]
Details | mass density | speed of sound [m/s] | viscosity [mPa·s]
313.15 K, 100 kPa | 882.52 kg/m3 and 882.49 kg/m3 | 1129.2 | –
313.15 K, 2000 kPa | 884.62 kg/m3 | – | –
313.15 K, 5000 kPa | 887.63 kg/m3 | – | –
313.15 K, 7000 kPa | 889.75 kg/m3 | – | –
313.15 K, 10000 kPa | 892.61 kg/m3 | – | –
313.15 K, 15000 kPa | 897.4 kg/m3 | – | –
313.15 K, 20000 kPa | 901.8 kg/m3 | – | –
313.15 K, 25000 kPa | 906.18 kg/m3 | – | –
313.15 K, 30000 kPa | 910.18 kg/m3 | – | –
313.15 K, 35000 kPa | 914.06 kg/m3 | – | –
313.15 K, 40000 kPa | 917.85 kg/m3 | – | –
313.15 K, 45000 kPa | 921.58 kg/m3 | – | –
313.15 K, 50000 kPa | 925.04 kg/m3 | – | –
313.15 K, 55000 kPa | 928.5 kg/m3 | – | –
313.15 K, 60000 kPa | 931.93 kg/m3 | – | –
313.15 K, 65000 kPa | 935.06 kg/m3 | – | –
315.65 K, 100 kPa | 879.73 kg/m3 | 1118.1 | 0.4049
318.15 K, 100 kPa | 876.92 kg/m3 and 876.88 kg/m3 | 1107.4 | 0.3962
318.15 K, 2000 kPa | 879.13 kg/m3 | – | –
318.15 K, 5000 kPa | 882.2 kg/m3 | – | –
318.15 K, 7000 kPa | 884.37 kg/m3 | – | –
318.15 K, 10000 kPa | 887.44 kg/m3 | – | –
318.15 K, 15000 kPa | 892.29 kg/m3 | – | –
318.15 K, 20000 kPa | 896.91 kg/m3 | – | –
318.15 K, 25000 kPa | 901.27 kg/m3 | – | –
318.15 K, 30000 kPa | 905.42 kg/m3 | – | –
318.15 K, 35000 kPa | 909.5 kg/m3 | – | –
318.15 K, 40000 kPa | 913.4 kg/m3 | – | –
318.15 K, 45000 kPa | 917.1 kg/m3 | – | –
318.15 K, 50000 kPa | 920.67 kg/m3 | – | –
318.15 K, 55000 kPa | 924.18 kg/m3 | – | –
318.15 K, 60000 kPa | 927.71 kg/m3 | – | –
318.15 K, 65000 kPa | 930.91 kg/m3 | – | –
320.65 K, 100 kPa | 874.11 kg/m3 | 1096.5 | 0.3885
323.15 K, 100 kPa | 871.29 kg/m3 and 871.23 kg/m3 | 1085.6 | 0.3794
323.15 K, 2000 kPa | 873.56 kg/m3 | – | –
323.15 K, 5000 kPa | 876.77 kg/m3 | – | –
323.15 K, 7000 kPa | 878.96 kg/m3 | – | –
323.15 K, 10000 kPa | 882.17 kg/m3 | – | –
323.15 K, 15000 kPa | 887.15 kg/m3 | – | –
323.15 K, 20000 kPa | 891.93 kg/m3 | – | –
323.15 K, 25000 kPa | 896.47 kg/m3 | – | –
323.15 K, 30000 kPa | 900.65 kg/m3 | – | –
323.15 K, 35000 kPa | 904.8 kg/m3 | – | –
323.15 K, 40000 kPa | 908.8 kg/m3 | – | –
323.15 K, 45000 kPa | 912.67 kg/m3 | – | –
323.15 K, 50000 kPa | 916.35 kg/m3 | – | –
323.15 K, 55000 kPa | 919.97 kg/m3 | – | –
323.15 K, 60000 kPa | 923.48 kg/m3 | – | –
323.15 K, 65000 kPa | 926.81 kg/m3 | – | –
325.65 K, 100 kPa | 868.46 kg/m3 | 1074.8 | 0.3706
328.15 K, 100 kPa | 865.62 kg/m3 and 865.59 kg/m3 | 1063.8 | 0.3619
328.15 K, 2000 kPa | 867.92 kg/m3 | – | –
328.15 K, 5000 kPa | 871.27 kg/m3 | – | –
328.15 K, 7000 kPa | 873.57 kg/m3 | – | –

Details | surface tension liquid-gas [mN/m] | vapor or sublimation pressure [kPa]
315.65 K | 22.66 | –
317.62 K | – | 18.64
318.15 K | 22.3 | –
320.45 K | – | 20.98
320.65 K | 22.07 | –
322.48 K | – | 22.8
323.15 K | 21.77 | –
324.89 K | – | 25.18
325.65 K | 21.4 | –
327.06 K | – | 27.46
328.15 K | 21.08 | –
